# Measured values from US11149018B2, “Substituted N-arylethyl-2-aminoquinoline-4-carboxamides and use thereof” (Bayer Aktiengesellschaft, priority 2017, dated 2021).
# Biological target: FP receptor (Homo sapiens (Human), UniProt P43088)
# Assay: In vitro test of inhibition of human FP receptor activity (PGF2α-induced calcium flux in FP-expressing CHEM1 cells)
# Assay type: cell-based
# Details: PGF2α 2 nM, some mean values of multiple determinations
# Outline: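 FP antagonism in FP-expressing CHEM1 cells loaded with Fluo-8. Compound preincubated 10 min at 37° C, then receptor stimulated with 2 nM (final) PGF2α in calcium-free Tyrode with 2 mM CaCl2.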
# Chain of FP receptor (P43088 whole entry): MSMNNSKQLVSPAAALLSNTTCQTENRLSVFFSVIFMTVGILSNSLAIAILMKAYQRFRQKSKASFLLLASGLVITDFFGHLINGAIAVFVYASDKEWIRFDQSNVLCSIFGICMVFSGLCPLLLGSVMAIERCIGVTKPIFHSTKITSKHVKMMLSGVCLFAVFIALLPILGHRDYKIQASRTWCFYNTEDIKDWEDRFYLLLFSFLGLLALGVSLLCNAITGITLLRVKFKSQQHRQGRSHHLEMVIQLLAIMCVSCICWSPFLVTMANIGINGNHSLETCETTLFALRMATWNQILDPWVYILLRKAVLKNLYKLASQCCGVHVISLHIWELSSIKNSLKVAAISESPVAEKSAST
row,Structure (SMILES),IC50
1,"Cc1c(N2CCCCCC2)nc2ccc(Br)cc2c1C(=O)NCC(CCC(=O)O)c1ccccc1OC(F)(F)F (racemic) [Example 135, (+/−)-5-({[2-(Azepan-1-yl)-6-bromo-3-methylquinolin-4-yl]carbonyl}amino)-4-[2-(trifluoromethoxy)phenyl]pentanoic acid]",3 nM
2,"Cc1ccc(F)cc1C(CCC(=O)O)CNC(=O)c1c(C)c(N2CCCCC2)nc2ccc(Br)cc12 (single isomer, unassigned; (+)) [Example 149, (+)-5-({[6-Bromo-3-methyl-2-(piperidin-1-yl)quinolin-4-yl]carbonyl}amino)-4-(5-fluoro-2-methylphenyl)pentanoic acid]",13 nM
3,"CCCCNc1nc2ccc(Br)cc2c(C(=O)NCC(CCC(=O)O)c2ccccc2Cl)c1C (racemic) [Example 101, (+/−)-5-({[6-Bromo-2-(butylamino)-3-methylquinolin-4-yl]carbonyl}amino)-4-(2-chlorophenyl)pentanoic acid]",450 nM
4,"Cc1c(N2CCCCC2C)nc2ccc(Br)cc2c1C(=O)NCC(CCC(=O)O)c1ccccc1Cl (centres unmarked) [Example 108, 5-[({6-Bromo-3-methyl-2-[2-methylpiperidin-1-yl]quinolin-4-yl}carbonyl)amino]-4-(2-chlorophenyl)pentanoic acid]",360 nM
5,"Cc1c(N2CCCC2)nc2ccc(Br)cc2c1C(=O)NCC(CCC(=O)O)c1c(F)ccc(F)c1Cl (racemic) [Example 154, (+/−)-5-({[6-Bromo-3-methyl-2-(pyrrolidin-1-yl)quinolin-4-yl]carbonyl}amino)-4-(2-chloro-3,6-difluorophenyl)pentanoic acid]",3.4 nM
6,"Cc1c(N2CCCCC2)nc2ccc(Br)cc2c1C(=O)NCC(CCC(=O)O)c1c(F)cccc1OC(F)F (single isomer, unassigned; (+)) [Example 184, (+)-5-({[6-Bromo-3-methyl-2-(piperidin-1-yl)quinolin-4-yl]carbonyl}amino)-4-[2-(difluoromethoxy)-6-fluorophenyl]pentanoic acid]",13 nM
7,"CCC1CCCN(c2nc3ccc(Br)cc3c(C(=O)NCC(CCC(=O)O)c3cc(F)ccc3F)c2C)C1 (racemic) [Example 226, (−)-5-[({6-Bromo-2-[3-ethylpiperidin-1-yl]-3-methylquinolin-4-yl}carbonyl)amino]-4-(2,5-difluorophenyl)pentanoic acid]",1.8 nM
8,"Cc1c(N2CCCC2)nc2ccc(Br)cc2c1C(=O)NCC(CCC(=O)O)c1ccccc1OC(F)(F)F (racemic) [Example 129, (+/−)-5-({[6-Bromo-3-methyl-2-(pyrrolidin-1-yl)quinolin-4-yl]carbonyl}amino)-4-[2-(trifluoromethoxy)phenyl]pentanoic acid]",6.1 nM
9,"Cc1c(N2CCCCC2)nc2ccc(Br)cc2c1C(=O)NCC(CCC(=O)O)c1c(Cl)cccc1Cl (racemic) [Example 241, (+/−)-5-({[6-Bromo-3-methyl-2-(piperidin-1-yl)quinolin-4-yl]carbonyl}amino)-4-(2,6-dichlorophenyl)pentanoic acid]",12 nM
10,"Cc1c(N2CCCCC2)nc2ccc(Br)cc2c1C(=O)NCC(CCC(=O)O)c1c(F)cccc1OC(F)F (single isomer, unassigned; (-)) [Example 183, (−)-5-({[6-Bromo-3-methyl-2-(piperidin-1-yl)quinolin-4-yl]carbonyl}amino)-4-[2-(difluoromethoxy)-6-fluorophenyl]pentanoic acid]",1.6 nM
11,"Cc1ccc(F)cc1C(CCC(=O)O)CNC(=O)c1c(C)c(N2CCCCC2)nc2ccc(Br)cc12 (single isomer, unassigned; (-)) [Example 148, (−)-5-({[6-Bromo-3-methyl-2-(piperidin-1-yl)quinolin-4-yl]carbonyl}amino)-4-(5-fluoro-2-methylphenyl)pentanoic acid]",4.5 nM
12,"Cc1c(N2CC(F)C(F)C2)nc2ccc(Br)cc2c1C(=O)NCC(CCC(=O)O)c1ccccc1Cl (stereo not drawn) [Example 69, 5-[({6-Bromo-2-[trans-3,4-difluoropyrrolidin-1-yl]-3-methylquinolin-4-yl}carbonyl)amino]-4-(2-chlorophenyl)pentanoic acid]",42 nM
13,"Cc1c(N2CCCC(C)C2)nc2ccc(Br)cc2c1C(=O)NCC(CCC(=O)O)c1ccccc1Cl (single isomer, unassigned; (+)) [Example 47, (+)-5-[({6-Bromo-3-methyl-2-[3-methylpiperidin-1-yl]quinolin-4-yl}carbonyl)amino]-4-(2-chlorophenyl)pentanoic acid]",14 nM
14,"Cc1c(N2CCOC(CO)C2)nc2ccc(Br)cc2c1C(=O)NCC(CCC(=O)O)c1cc(F)ccc1Cl (centres unmarked) [Example 20, 5-[({6-Bromo-2-[2-(hydroxymethyl)morpholin-4-yl]-3-methylquinolin-4-yl}carbonyl)amino]-4-(2-chloro-5-fluorophenyl)pentanoic acid]",490 nM
15,"Cc1c(N2CCC(C)C2)nc2ccc(Br)cc2c1C(=O)NCC(CCC(=O)O)c1ccccc1Cl (centres unmarked) [Example 36, 5-[({6-Bromo-3-methyl-2-[3-methylpyrrolidin-1-yl]quinolin-4-yl}carbonyl)amino]-4-(2-chlorophenyl)pentanoic acid]",22 nM
16,"COc1ccccc1C(CCC(=O)O)CNC(=O)c1c(C)c(N2CCCCCC2)nc2ccc(Br)cc12 (single isomer, unassigned; (-)) [Example 240, (−)-5-({[2-(Azepan-1-yl)-6-bromo-3-methylquinolin-4-yl]carbonyl}amino)-4-(2-methoxyphenyl)pentanoic acid]",16 nM
17,"Cc1c(N2CC=CCC2)nc2ccc(Br)cc2c1C(=O)NCC(CCC(=O)O)c1ccccc1Cl (single isomer, unassigned) [Example 30, 5-({[6-Bromo-2-(3,6-dihydropyridin-1(2H)-yl)-3-methylquinolin-4-yl]carbonyl}amino)-4-(2-chlorophenyl)pentanoic acid]",8.7 nM
18,"Cc1c(N2CCCC(C)C2)nc2ccc(Br)cc2c1C(=O)NCC(CCC(=O)O)c1ccccc1Cl (single isomer, unassigned; (-)) [Example 46, (−)-5-[({6-Bromo-3-methyl-2-[3-methylpiperidin-1-yl]quinolin-4-yl}carbonyl)amino]-4-(2-chlorophenyl)pentanoic acid]",1.3 nM
19,"Cc1c(N2CCCCC2)nc2ccc(Br)cc2c1C(=O)NCC(CCC(=O)O)c1c(Cl)ccc(F)c1F (single isomer, unassigned; (-)) [Example 145, (−)-5-({[6-Bromo-3-methyl-2-(piperidin-1-yl)quinolin-4-yl]carbonyl}amino)-4-(6-chloro-2,3-difluorophenyl)pentanoic acid]",1.5 nM
20,"Cc1c(N2CCCCC2)nc2ccc(Br)cc2c1C(=O)NCC(CCC(=O)O)c1cc(F)ccc1F (single isomer, unassigned; (-)) [Example 256, (−)-5-({[6-Bromo-3-methyl-2-(piperidin-1-yl)quinolin-4-yl]carbonyl}amino)-4-(2,5-difluorophenyl)pentanoic acid]",8.4 nM
21,"Cc1c(N2CCCC(C)C2)nc2ccc(Br)cc2c1C(=O)NCC(CCC(=O)O)c1ccccc1OC(F)(F)F (single isomer, unassigned; (-)) [Example 209, (−)-5-[({6-Bromo-3-methyl-2-[3-methylpiperidin-1-yl]quinolin-4-yl}carbonyl)amino]-4-[2-(trifluoromethoxy)phenyl]pentanoic acid]",7 nM
22,"Cc1c(N2CCCC2)nc2ccc(Br)cc2c1C(=O)NCC(CCC(=O)O)c1ccccc1OC(F)(F)F (single isomer, unassigned; (+)) [Example 131, (+)-5-({[6-Bromo-3-methyl-2-(pyrrolidin-1-yl)quinolin-4-yl]carbonyl}amino)-4-[2-(trifluoromethoxy)phenyl]pentanoic acid]",9.8 nM
23,"Cc1c(N2CCCC(F)C2)nc2ccc(Br)cc2c1C(=O)NCC(CCC(=O)O)c1ccccc1OC(F)(F)F (centres unmarked) [Example 138, 5-[({6-Bromo-2-[3-fluoropiperidin-1-yl]-3-methylquinolin-4-yl}carbonyl)amino]-4-[2-(trifluoromethoxy)phenyl]pentanoic acid]",3 nM
24,"Cc1c(N2CCCC(F)C2)nc2ccc(Br)cc2c1C(=O)NCC(CCC(=O)O)c1c(Cl)ccc(Cl)c1Cl (single isomer, unassigned) [Example 221, 5-[({6-Bromo-2-[3-fluoropiperidin-1-yl]-3-methylquinolin-4-yl}carbonyl)amino]-4-(2,3,6-trichlorophenyl)pentanoic acid]",8.4 nM
25,"Cc1c(N2CCCCO2)nc2ccc(Br)cc2c1C(=O)NCC(CCC(=O)O)c1ccccc1Cl (racemic) [Example 32, (+/−)-5-({[6-Bromo-3-methyl-2-(1,2-oxazinan-2-yl)quinolin-4-yl]carbonyl}amino)-4-(2-chlorophenyl)pentanoic acid]",48 nM
26,"Cc1c(N2CCSCC2)nc2ccc(Br)cc2c1C(=O)NCC(CCC(=O)O)c1cc(F)ccc1Cl (racemic) [Example 11, (+/−)-5-({[6-Bromo-3-methyl-2-(thiomorpholin-4-yl)quinolin-4-yl]carbonyl}amino)-4-(2-chloro-5-fluorophenyl)pentanoic acid]",25 nM
27,"Cc1c(N2CCCC(F)C2)nc2ccc(Br)cc2c1C(=O)NCC(CCC(=O)O)c1ccccc1Cl (single isomer, unassigned; (-)) [Example 186, (−)-5-[({6-Bromo-2-[3-fluoropiperidin-1-yl]-3-methylquinolin-4-yl}carbonyl)amino]-4-(2-chlorophenyl)pentanoic acid]",8.6 nM
28,"Cc1c(N2CCCC(F)C2)nc2ccc(Br)cc2c1C(=O)NCC(CCC(=O)O)c1cc(F)ccc1F (centres unmarked) [Example 264, 5-[({6-Bromo-2-(3-fluoropiperidin-1-yl)-3-methylquinolin-4-yl}carbonyl)amino]-4-(2,5-difluorophenyl)pentanoic acid]",30 nM
29,"Cc1c(N2CCCC(C)(O)C2)nc2ccc(Br)cc2c1C(=O)NCC(CCC(=O)O)c1ccccc1Cl (centres unmarked) [Example 62, 5-[({6-Bromo-2-[3-hydroxy-3-methylpiperidin-1-yl]-3-methylquinolin-4-yl}carbonyl)amino]-4-(2-chlorophenyl)pentanoic acid]",110 nM
